Test results reported in ChEMBL document CHEMBL5120864, “Targeting Enhancer of Zeste Homolog 2 for the Treatment of Hematological Malignancies and Solid Tumors: Candidate Structure-Activity Relationships Insights and Evolution Prospects” (J Med Chem, 2022).

Legend:
KARPAS-422 [1] = assay: cells; assay type: functional, cell-based; conditions: Homo sapiens
WSUDLCL2 = assay: cells; assay type: functional, cell-based; conditions: Homo sapiens
Pfeiffer = assay: cells; assay type: functional, cell-based; conditions: Homo sapiens
[2] = biological target: T1, Histone-lysine N-methyltransferase EZH2 (Homo sapiens, UniProt Q15910)
T1 sequence (Q15910 whole entry): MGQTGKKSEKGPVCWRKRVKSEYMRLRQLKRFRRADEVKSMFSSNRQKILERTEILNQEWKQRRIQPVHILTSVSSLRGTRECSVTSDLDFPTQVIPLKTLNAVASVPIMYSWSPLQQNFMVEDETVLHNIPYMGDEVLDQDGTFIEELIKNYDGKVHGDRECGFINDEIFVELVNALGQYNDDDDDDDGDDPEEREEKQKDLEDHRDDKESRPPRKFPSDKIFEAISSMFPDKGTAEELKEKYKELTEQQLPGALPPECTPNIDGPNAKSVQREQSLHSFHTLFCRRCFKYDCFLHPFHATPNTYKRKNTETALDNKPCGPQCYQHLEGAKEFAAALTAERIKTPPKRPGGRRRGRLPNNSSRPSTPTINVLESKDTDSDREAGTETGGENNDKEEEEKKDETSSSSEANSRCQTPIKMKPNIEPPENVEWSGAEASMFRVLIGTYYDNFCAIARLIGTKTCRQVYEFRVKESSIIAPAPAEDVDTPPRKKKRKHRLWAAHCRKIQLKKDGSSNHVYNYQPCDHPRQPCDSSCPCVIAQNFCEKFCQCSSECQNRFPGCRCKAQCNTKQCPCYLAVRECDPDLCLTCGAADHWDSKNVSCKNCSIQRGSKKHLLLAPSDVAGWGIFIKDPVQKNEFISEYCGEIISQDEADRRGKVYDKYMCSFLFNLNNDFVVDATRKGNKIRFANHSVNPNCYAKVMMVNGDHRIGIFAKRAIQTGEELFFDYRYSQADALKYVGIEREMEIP

[3] = biological target: Histone-lysine N-methyltransferase EZH2 (Homo sapiens, UniProt Q15910, Y641F)
Chain of Histone-lysine N-methyltransferase EZH2 (Homo sapiens, UniProt Q15910, Y641F) (Q15910 whole entry Y641F): as the sequence (Q15910 whole entry) above, with Y641F counted along it

[4] = biological target: T1, Histone-lysine N-methyltransferase EZH2; remark: listed apart in the source
SU-DHL-6 = assay: cells; assay type: functional, cell-based; conditions: Homo sapiens
MCF7 = assay: cells; assay type: functional, cell-based; conditions: Homo sapiens, MCF7, 24 h
PC-3 = assay: cells; assay type: functional, cell-based; conditions: Homo sapiens, PC-3, 24 h
HepG2 = assay: cells; assay type: functional, cell-based; conditions: Homo sapiens, HepG2, 24 h
KARPAS-422 [5] = assay: cells; assay type: functional; conditions: Homo sapiens
HeLa = assay: cells; assay type: functional, cell-based; conditions: Homo sapiens
MDA-MB-231 = assay: cells; assay type: functional, cell-based; conditions: Homo sapiens, MDA-MB-231, 72 h
[6] = biological target: Histone-lysine N-methyltransferase EZH2 (Homo sapiens, UniProt Q15910, Y641N)
Chain of Histone-lysine N-methyltransferase EZH2 (Homo sapiens, UniProt Q15910, Y641N) (Q15910 whole entry Y641N): as the sequence (Q15910 whole entry) above, with Y641N counted along it

[7] = biological target: T1, Histone-lysine N-methyltransferase EZH2; remark: listed apart in the source
[8] = biological target: T2, Protein cereblon/Histone-lysine N-methyltransferase EZH2 (Homo sapiens, UniProt Q15910+Q96SW2); assay type: cell-based, DOHH-2
T2 sequence (Q15910 whole entry): as the sequence (Q15910 whole entry) above
T2 sequence (Q96SW2 whole entry): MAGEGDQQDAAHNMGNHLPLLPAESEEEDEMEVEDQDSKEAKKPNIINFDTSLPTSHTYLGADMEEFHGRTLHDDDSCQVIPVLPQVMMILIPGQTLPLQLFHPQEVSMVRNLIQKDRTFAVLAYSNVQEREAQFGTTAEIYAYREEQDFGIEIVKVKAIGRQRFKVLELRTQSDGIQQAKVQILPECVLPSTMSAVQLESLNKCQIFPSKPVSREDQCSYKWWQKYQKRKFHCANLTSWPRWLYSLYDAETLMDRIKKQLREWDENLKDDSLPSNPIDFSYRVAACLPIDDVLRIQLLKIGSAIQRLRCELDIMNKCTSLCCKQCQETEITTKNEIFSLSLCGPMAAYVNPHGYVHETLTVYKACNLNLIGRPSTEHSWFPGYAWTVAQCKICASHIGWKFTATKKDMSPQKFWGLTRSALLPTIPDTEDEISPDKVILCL

[9] = biological target: T2, Protein cereblon/Histone-lysine N-methyltransferase EZH2; assay type: cell-based, OCILY7

COc1cc(C)[nH]c(=O)c1CN1CCn2ccc3cc(-c4c(C)noc4C)c(Cl)c(c32)C1=O
IC50 (KARPAS-422 [1]): 0.052 µM | IC50 (WSUDLCL2): 0.0038 µM

Cc1cc(C)c(CNC(=O)c2cc(-c3ccc(CN4CCN(C)CC4)cc3)cc3c2OCCN3C2CCCCC2)c(=O)[nH]1
IC50 (Pfeiffer): 4.21 µM

COc1cc(C)[nH]c(=O)c1CNC(=O)c1c(C)n([C@H](C)C2CCN(CC(C)(F)F)CC2)c2ccccc12
IC50 [2]: < 0.001 µM | IC50 [3]: < 0.001 µM

Cc1cc(C)c(CNC(=O)c2cnn(-c3ccccc3)c2)c(=O)[nH]1
IC50 [4]: > 400 µM

CCN(c1cc(-c2ccc(CN3CCOCC3)cc2)cc(C(=O)NCc2c3c(c(C)[nH]c2=O)CCCCCC3)c1C)C1CCOCC1
IC50 (SU-DHL-6): > 30 µM | IC50 (Pfeiffer): 21 µM

COc1ccc(C2SCCC(=O)N2Nc2nc3cc(Cl)c(Cl)cc3[nH]2)cc1 (configuration not stated)
IC50 (MCF7): 76.8 µM | IC50 (PC-3): 71.8 µM | IC50 (HepG2): 68.7 µM

CCCc1cc(C)[nH]c(=O)c1CNC(=O)c1cc(-c2ccc(N3CCNCC3)nc2)cc2c([C@H](C)CC)ncn12
IC50 [2]: 0.0761 µM | IC50 [3]: 0.00813 µM

Cc1cc(Cl)c(CNC(=O)c2cc(Cl)c3c(c2C)OC(C)(C2CCC(N4CC(OC5CC5)C4)CC2)O3)c(=O)[nH]1 (configuration not stated)
GI50 (KARPAS-422 [5]): 0.005 µM | EC50 (HeLa): 0.00052 µM

CCN(c1cc(C#CCN2CCOCC2)cc(C(=O)NCc2c(C)cc(C)[nH]c2=O)c1C)[C@H]1CC[C@H](N(C)CCOC)CC1
IC50 (WSUDLCL2): 0.385 µM

O=C1CCSC(c2ccc(Cl)cc2)N1Nc1nc2ccccc2[nH]1 (configuration not stated)
IC50 (MCF7): 74.3 µM | IC50 (PC-3): 66.9 µM | IC50 (HepG2): 53.3 µM

Cc1cc(C)c(CNC(=O)c2cnn(C(C)C)c2C)c(=O)[nH]1
IC50 [4]: 343 µM

CCN(c1cc(-c2cnc(N3CCN(C)CC3)nc2)cc2c(NCc3c(C)cc(C)[nH]c3=O)nccc12)[C@H]1CC[C@H](N(C)C)CC1
IC50 [3]: < 0.005 µM | IC50 (Pfeiffer): 0.249 µM

COc1cc2nc(N3CCCN(C)CC3)nc(NC3CCN(Cc4ccccc4)CC3)c2cc1OC
IC50 (MDA-MB-231): 9.6 µM

C=CCC1(S(=O)(=O)n2nc(C)c3c(C(=O)NCc4c(C)cc(C)[nH]c4=O)cc(-c4ccc(N5CCN(C)CC5)nc4)cc32)CC1
IC50 [6]: 2.81 µM | IC50 [3]: 0.585 µM

Cc1cc(C)c(CNC(=O)c2cc3c(c(-c4ccc(N5CCNCC5)cc4)c2)OC(C)(C)C3)c(=O)[nH]1
IC50 [7]: < 0.5 µM

[2H]C([2H])([2H])Sc1cc(C)[nH]c(=O)c1CNC(=O)c1c(C)n([C@H](C)C2CCC(OC)CC2)c2ccc(-c3cnn(C)c3)cc12 (some centres not stated)
IC50 [7]: 0.0004 µM | IC50 (SU-DHL-6): 0.0711 µM

O=C1CCSC(c2ccccc2Cl)N1Nc1nc2ccccc2[nH]1 (configuration not stated)
IC50 (MCF7): 20.3 µM | IC50 (PC-3): 9.41 µM | IC50 (HepG2): 13.6 µM

CCN(c1cc(-c2ccc(CN3CCOCC3)cc2)cc(C(=O)NCc2c(Cl)cc(C)c[n+]2[O-])c1C)C1CCOCC1
IC50 [7]: < 0.1 µM

O=C1CCSC(c2ccc([N+](=O)[O-])cc2)N1Nc1nc2ccccc2[nH]1 (configuration not stated)
IC50 (MCF7): 47.6 µM | IC50 (PC-3): 64.6 µM | IC50 (HepG2): 55.8 µM

C=CCC1(S(=O)(=O)n2cc(C)c3c(C(=O)NCc4c(OC)cc(C)[nH]c4=O)cc(-c4ccc(N5CCN(C)CC5)nc4)cc32)CC1
IC50 [6]: 27 µM | IC50 [3]: 0.005 µM

CCc1c(C(=O)NCc2c(C)cc(C)[nH]c2=O)cc2c(cnn2C)c1N(CC)[C@H]1CC[C@H](N2CC(OC)C2)CC1
IC50 (Pfeiffer): 0.076 µM

Cc1cc(-c2ccc(N3CCN(C)CC3)nc2)c2ccc(C(=O)NCc3c(OC(C)C)cc(C)[nH]c3=O)c(C)c2n1
IC50 [2]: 0.00129 µM | IC50 [3]: 0.013 µM

C=CC(=O)Nc1nn(Cc2ccc(-c3ccccc3)cc2)c(C)c1C(=O)NCc1c(C)cc(C)[nH]c1=O
IC50 [7]: 0.109 µM

Cc1cc2c(c(=O)[nH]1)CNC(=O)c1cc(Cl)cc3c1c(cn3C(C)C)/C=C/CC2
IC50 [7]: 0.04 µM

Cc1cc(C)c(CNC(=O)c2cc(Br)c3c(c2C)O[C@@](C)([C@H]2CC[C@H](N(C)C)CC2)O3)c(=O)[nH]1
GI50 (KARPAS-422 [5]): 0.004 µM

CCCc1cc(C)n(C)c(=O)c1CN(C)C(=O)c1cc(-c2ccc(N3CCN(C(C)C)CC3)nc2)cc2c1CNN2C(C)C
IC50 [7]: 13 µM

CCN(c1cc(-c2ccc(CN3CCN(C(=O)CCCCCCCNc4cccc5c4C(=O)N(C4CCC(=O)NC4=O)C5=O)CC3)cc2)cc(C(=O)NCc2c(C)cc(C)[nH]c2=O)c1C)C1CCOCC1 (configuration not stated)
IC50 [8]: 0.1 µM | IC50 [9]: 0.06 µM

CCN(c1cc(C#CC2CCN(C)CC2)cc(C(=O)NCc2c(C)cc(C)[nH]c2=O)c1C)C1CCOCC1
IC50 [3]: 0.0084 µM
